Entries after “also recorded” stand apart in the source; their conditions may differ. Square brackets hold non-standard residues; d marks the D form. Peptide text beside a SMILES is read from it. 2Nal = N[C@@H](Cc1ccc2ccccc2c1)C(=O)O
Tests used:
[1] = system: HO-1 protein (Keap1-Nrf2-ARE pathway), HEK293 cells; assay: Anti-HO1 immunoblot of HO-1 protein level in HEK293 cells; type: cell-based, human; conditions: varying doses
Description: FIG. 5 is an image from a Western blot analysis of HO-1 protein levels in HEK293 cells untreated or after treatment with SFN (10 μM) or a cyclic β-hairpin peptide (40 μM).
FIG. 8 is a western blot showing the effect of peptide BH15 on the protein level of HO-1, a protein downstream of the Keap1-Nrf2-ARE pathway. SFN, a small-molecule positive control; blank, no inhibitor.
The cellular activity of Keap1-Nrf2 inhibitors BH13-18 was assessed by examining their effects on the expression levels of HO-1 protein, by anti-HO1 immunoblot analysis. HO-1 is an antioxidant enzyme under the transcriptional control of Nrf2 binding to the ARE, and disruption of the Keap1-Nrf2 interaction is expected to increase the protein level of HO-1.
(§1) BH15 enters human cells, binds and inhibits the function of Keap1 (which promotes the ubiquitination and degradation of Nrf2), resulting in increased intracellular levels of Nrf2, a transcription factor. […] This in turn results in the increased levels of HO-1, a protein whose expression is controlled by Nrf2.

[2] = system: Nrf2 protein level, HEK293 cells; assay: Western blot of Nrf2 protein level in cytoplasm and nucleus of HEK293 cells; type: cell-based, human; conditions: varying doses
Source text: The cellular activity of Keap1-Nrf2 Inhibitor BH15 was characterized, and it was observed that BH15 is biologically active in cell-based assays. Varying doses of BH15 were provided to HEK293 cells in culture. After a period of time, the cells were lysed, and cytosolic fractions were separated from nuclear fractions.
as §1

Keap1-Nrf2 interaction = Keap1-Nrf2 interaction (Homo sapiens, UniProt Q14145); assay: Fluorescence anisotropy-based competition assay, inhibition of Keap1-Nrf2 peptide interaction; type: binding; conditions: FA competition with fluorescently labeled Nrf2 peptide and Keap1
Keap1-Nrf2 interaction, sequence (Q14145 321-609 limits assumed): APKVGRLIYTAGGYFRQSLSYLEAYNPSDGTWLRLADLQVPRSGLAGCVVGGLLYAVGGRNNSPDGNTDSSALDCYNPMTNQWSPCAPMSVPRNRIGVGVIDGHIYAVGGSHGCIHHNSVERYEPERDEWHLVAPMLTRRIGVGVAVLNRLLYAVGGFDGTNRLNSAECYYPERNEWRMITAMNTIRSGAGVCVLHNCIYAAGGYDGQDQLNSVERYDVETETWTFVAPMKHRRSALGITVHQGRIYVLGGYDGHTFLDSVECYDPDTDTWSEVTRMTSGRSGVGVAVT
Description: The percentage of inhibition was calculated from the fluorescence anisotropy decrease by using equation % Inhibition=(FAmax−FAobs)/(FAmax−FAmin)×100% and plotted against the inhibitor concentration.

[3] = system: Grb2/Ras signaling pathway, MDA-MB-468 breast cancer cells; assay: Western blot of MEK and ERK1/2 phosphorylation in EGF-stimulated MDA-MB-468 cells; type: cell-based; conditions: peptide 2 h, EGF 50 ng/mL 10 min
Description: FIG. 13 provides western blots depicting the effect of peptides BH23, BH24, and BH25 on the Grb2/Ras signaling pathway. MDA-MB-468 cells were treated with the indicated concentrations of peptide BH23 (a) or control peptides BH24 and BH25 (b) for 2 h and stimulated with EGF (50 ng/mL) for 10 min. The cells were then lysed and the cell lysates were separated on SDS-PAGE and blotted with antibodies specific for phosphorylated and total kinases in the Ras signaling pathway. Glyceraldehyde 3-phosphate dehydrogenase (GAPDH) was used as the loading control. […] Inhibition of ERK1/2 phosphorylation was less dramatic, as expected from its further downstream position on the Grb2/Ras signaling pathway.
FIG. 14(a) is the structure of BH26. FIG. 14(b) provides western blots showing the effect of peptides BH23 and BH26 on the Grb2/Ras signaling pathway. MDA-MB-468 cells were treated with the indicated concentrations of BH23 or BH26 for 2 h and stimulated with EGF (50 ng/mL) for 10 min. The cells were then lysed and the cell lysates were separated on SDS-PAGE and blotted with antibodies specific for phosphorylated and total kinases in the Ras signaling pathway.
BH23 and BH24 were tested for their ability to inhibit the Grb2/Ras signaling pathways, by monitoring the phosphorylation of MEK and ERK1/2 kinases downstream of Ras.

Grb2 SH2 domain = Grb2 SH2 domain (Homo sapiens, UniProt P62993); assay: FP-based competition assay with FAM-labeled reporter ligand for Grb2 SH2 domain; type: binding
Grb2 SH2 domain, sequence (P62993 60-152 limits assumed): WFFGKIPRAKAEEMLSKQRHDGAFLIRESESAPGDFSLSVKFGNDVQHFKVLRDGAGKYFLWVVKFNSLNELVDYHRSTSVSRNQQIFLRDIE
Description: FIG. 10(a) is the structure of a Grb2 SH2 ligand. […] This ligand was used as reporter ligand in FA/FP-based competition assays to determine the binding affinities of new Grb2 SH2 domain ligands.
The binding affinity of BH23 (unlabeled) for the Grb2 SH2 domain was then determined by examining its ability to compete with the FAM-labeled ligand for binding to the Grb2 SH2 domain by fluorescence polarization (FP). […] Next, BH23 was labeled with NF at the Asn side chain through a miniPEG-Lys linker and its cytosolic entry efficiency was quantitated by treating HeLa cells with 5 μM of the labeled peptide for 2 h before flow cytometry analysis. […] BH23 was also similarly labeled at the Asn side chain with FAM and its entry into HeLa cells was examined by live-cell confocal microscopy. […] Two control peptides (BH24 and BH25) were also prepared for cellular assays. BH24 and BH25 are structurally similar to BH23, except that BH24 contained a Tyr instead of the pY residue (FIG. 11), whereas in BH25 the two hydrophobic residues critical for cellular uptake (Nal-arg) were replaced with Ala-ala (FIG. 12).

HeLa cells = assay: Cellular (cytosolic) uptake of NF-labeled peptides by flow cytometry (MFI); type: cell-based; conditions: HeLa cells, flow cytometry, relative to CPP1 (100%)
mammalian cells = conditions: Qian et al. 2013; cited from earlier work
[4] = LaRochelle et al. 2015; cited from earlier work

CC(C)C[C@@H]1NC(=O)[C@H](Cc2ccccc2)NC(=O)[C@H](CCCNC(=N)N)NC(=O)[C@H](CCCNC(=N)N)NC(=O)[C@@H]2CCCN2C(=O)[C@H]2CCCN2C(=O)[C@@H](CCCNC(=N)N)NC(=O)[C@H](Cc2ccc3ccccc3c2)NC(=O)[C@H](Cc2ccccc2)NC(=O)[C@H](Cc2ccccc2)NC(=O)[C@H](CCC(=O)O)NC(=O)CNC(=O)[C@H]([C@@H](C)O)NC(=O)[C@H](CCC(=O)O)NC(=O)[C@@H]2CCCN2C(=O)[C@H](CC(=O)O)NC1=O [BH15, cyclo(F-F-Φ-r-p-P-R-R-F-L-D-P-E-T-G-E)]
HO-1 level, dose response [1]: dose-dependently increased | Nrf2 levels in cytosolic and nuclear fractions [2]: dose-dependently increased | IC50 (Keap1-Nrf2 interaction): ~160 nM

CC(C)[C@@H]1NC(=O)[C@H](Cc2ccc(O)cc2)NC(=O)[C@H](CCCNC(=N)N)NC(=O)[C@H](CCCNC(=N)N)NC(=O)[C@@H]2CCCN2C(=O)[C@H]2CCCN2C(=O)[C@@H](CCCNC(=N)N)NC(=O)[C@H](Cc2ccc3ccccc3c2)NC(=O)[C@H](Cc2ccccc2)NC(=O)[C@H](CC(N)=O)NC1=O [BH24, cyclo[F-Φ-r-p-P-R-R-Y-V-N)] (cyclo(YVNF[2Nal][dR][dP]PRR))
Phosphorylation of MEK [3]: did not decrease and not | Binding to the Grb2 SH2 domain (in words) (Grb2 SH2 domain; competition with fluorescently labeled reporter ligand): no detectable binding; also recorded: inability to compete | IC50 (Grb2 SH2 domain; unlabeled peptide, FP-based competition with FAM-labeled ligand, read-out: IC50 Value, binding to Grb2 SH2 domain): > 10 µM

cyclo(F-Φ-R-R-R-R-Q)-miniPEG-K(NF) (cyclo(F[2Nal]RRRRQ); not fully specified (residue 7); printed as cyclo(F-Φ-R-R-R-R-Q)-miniPEG-K(NF)) [CPP1, reference compound]
Cellular Uptake (MFINF, %) (HeLa cells; 5 μM NF-labeled peptide, 2 h): 100% | Cellular Uptake (MFI^NF, %) of Keap1-Nrf2 inhibitors (HeLa cells; NF-labeled peptide): 100% | Efficiency of entry into cytoplasm and nucleus, fold higher than nonaarginine (R9) (mammalian cells): 2-5 fold

nonaarginine (RRRRRRRRR) [Peptide R9]
Cytosolic delivery efficiency (ratio of cytosolic over extracellular cargo concentrations) [4]: 4.4%

Reference: patent US11352394B2, “Cyclic cell penetrating peptides comprising beta-hairpin motifs and methods of making and using thereof” (Ohio State Innovation Foundation, priority 2016, dated 2022)
